Reference: US20220155314A1, “TROPHOBLAST STEM CELL, METHODS OF PREPARATION AND USES THEREOF” (Academia Sinica, priority 2020, published 2022)
Residues, ends and D or L forms follow the SMILES beside them. *: point of attachment. Cbz = O=C(OCc1ccccc1)*

Key:
[1] = tested on: BeWo cells; test: Expression of trophoblast stemness and differentiation genes in BeWo cells treated with EGF and chemical inhibitors; format: cell-based, human; conditions: 1 mM VPA with 20 μM MG132, 8 h (FIG. 6G)
Procedure: FIGS. 6A to 6I show the regulation of trophoblast stemness and differentiation by antagonism between ΔNp63α and GCM1. […] ITGA6-positive term CTBs were cultured in complete TS medium for 5 days and then maintained in the same medium or incomplete medium (vehicle alone without EGF and chemical inhibitors) for an additional 7 days. Cells were subjected to immunofluorescence microscopy of ΔNp63α, GCM1, and hCGβ. […] BeWo cells were incubated in complete or incomplete TS medium supplemented with the indicated growth factor or chemical inhibitor(s) for 24 h. Cells were harvested for quantitative RT-PCR analysis of the indicated stemness or differentiation genes. […] BeWo cells were treated with the indicated concentration of VPA for 24 hours and then harvested for immunoblotting and quantitative RT-PCR analyses of GCM1, ΔNp63α, and hCGβ. […] BeWo cells were transfected with 4XCSL-luciferase in the presence or absence of 2 mM VPA for 48 hours, followed by luciferase assays. […] 293T cells were transfected with pHA-GCM1 and pNotch1IC-FLAG for 48 hours, followed by coimmunoprecipitation analysis and confocal microscopy using FLAG and HA mAbs and GCM1 Ab. […] EGFP-positive mock or Notch1IC-FLAG-expressing BeWo cells were treated with or without 50 μM FSK for 24 h, followed by immunoblotting and quantitative RT-PCR analyses of GCM1, hCGβ or HTRA4. […] BeWo cells were treated with or without 1 mM VPA in the presence or absence of 20 μM MG132 for 8 h and then subjected to immunoblotting analysis of GCM1 and Notch1IC. […] The EGFP-positive mock or Notch1IC-FLAG-expressing BeWo cells were transfected with the GCM1 promoter reporter plasmid E1bLUCGCM1-2K for 48 h and then subjected to luciferase assays. […] BeWo cells and ITGA6-positive term CTBs were cultured under normoxic or hypoxic conditions for 72 h and 7 days, respectively. Cells were then harvested for quantitative RT-PCR analysis of GCM1, ΔNp63α, HTRA4, hCGβ, and MKI67. Means and standard deviations obtained from three independent experiments are presented.
To study the effect of EGF and chemical inhibitors on trophoblast differentiation, BeWo cells were cultured in the complete TS medium or in the incomplete TS medium with EGF alone or the indicated chemical inhibitor(s) for 24 h. Cells were then harvested for quantitative RT-PCR or immunoblotting analysis of expression of ΔNp63α, eomesodermin (EOMES), E74-like factor 5 (ELF5) or GCM1 and its target genes.

[2] = tested on: ΔNp63α; test: ΔNp63α stability in JEG3 cells (FSK with or without MG132); format: cell-based, human; conditions: 50 μM FSK 24 h in presence of MG132 (FIG. 3F)
Procedure: FIGS. 3A to 3I show reciprocal regulation of GCM1 and ΔNp63α activities in trophoblast differentiation. […] Scramble control, ΔNp63α-knockdown or GCM1-knockdown JEG3 cells were treated with or without 50 μM FSK for 24 h and then harvested for immunoblotting and quantitative RT-PCR analyses of SYN1, hCGβ, HTRA4 proteins or transcripts. Arrowhead denotes a non-specific band recognized by ΔNp63α Ab. […] Scramble control and ΔNp63α knockdown JEG3 cells were treated with or without 50 μM FSK for 48 h, followed by immunofluorescence microscopy with E-cadherin Ab. Syncytial margins are marked with stippled line. Cell fusion was quantified by fusion index. […] Mock and ΔNp63α-FLAG-expressing BeWo cells or scramble control and ΔNp63α-knockdown JEG3 cells were subjected to immunoblotting and quantitative RT-PCR analyses of RACK1 and GATA3 proteins or transcripts. […] Scramble control or ΔNp63α-knockdown JEG3 cells were transfected with pHTRA4-1 Kb with or without pGATA3-FLAG for 48 h, followed by luciferase assays. […] WT and GCM1-KO JEG3 cells were treated with or without 50 μM FSK for 24 hours and then harvested for immunoblotting and quantitative RT-PCR analyses of GCM1, ΔNp63α, hCGβ proteins and transcripts. […] Quantitation of band intensity was performed by densitometry analysis, and the relative ΔNp63α protein level was normalized by β-actin. […]

Which results are given for `CC(C)C[C@@H](C=O)NC(=O)[C@H](CC(C)C)NC(=O)[C@H](CC(C)C)NC(=O)OCc1ccccc1` [MG132] (Cbz-Leu-Leu-Leu-aldehyde)?
VPA-mediated downregulation of GCM1 expression [1]: compromised; suppressive effect of FSK on ΔNp63α expression [2]: counteracted
